Data: US20160108098A1, “THERAPEUTIC PEPTIDES” (GLAXOSMITHKLINE INTELLECTUAL PROPERTY DEVELOPMENT LIMITED, priority 2013, published 2016)
Where no end group is shown, it is not given here.

Tests used:
[1] = cumulative food intake, lean mice (Model A), BioDaQ system; format: in vivo; conditions: lean C57BL/6 mice, 1 mg/kg subcutaneously, cumulative food intake after 6 h, relative to vehicle controls
Protocol: Cumulative food intake after 6 h was determined for the PYY analogs in either lean (Model A) or diet-induced obese (DIO) (Model B) C57BL/6 mice in a BioDaQ system for continuous monitoring of food intake (Research Diets Inc., New Brunswick, N.J.). […] Mice were placed singly into the BioDaQ cages and acclimatized for a minimum of 6 days and were allowed ad libitum access to food and water. Approximately 1 hour prior to lights-out, animals were dosed subcutaneously with either vehicle (20 mM Acetate buffer, pH 4.9 or 20% DMSO in water) or analogs dissolved in vehicle (1 mg/kg) (8 animals per group). Once all animals have been dosed, feeder gates were opened providing ad-libitum access to food. Continuous food intake was monitored and collected for 15 hours. […] P-values<0.05 were considered to indicate a significant difference between treatment groups.

[2] = biological target: T1, human Neuropeptide Y receptor type 2 (Homo sapiens, UniProt P49146); assay: melanophore assay, potency at the human Neuropeptide Y receptor type 2; format: cell-based; conditions: read-out: hNPY Y2 pEC50 (converted)
T1 construct: expressed in transfected cells; host or cells: melanophores; own knowledge: in the cited Jayawickreme protocol these are Xenopus laevis melanophores transfected with the receptor
T1 sequence (P49146 1-381): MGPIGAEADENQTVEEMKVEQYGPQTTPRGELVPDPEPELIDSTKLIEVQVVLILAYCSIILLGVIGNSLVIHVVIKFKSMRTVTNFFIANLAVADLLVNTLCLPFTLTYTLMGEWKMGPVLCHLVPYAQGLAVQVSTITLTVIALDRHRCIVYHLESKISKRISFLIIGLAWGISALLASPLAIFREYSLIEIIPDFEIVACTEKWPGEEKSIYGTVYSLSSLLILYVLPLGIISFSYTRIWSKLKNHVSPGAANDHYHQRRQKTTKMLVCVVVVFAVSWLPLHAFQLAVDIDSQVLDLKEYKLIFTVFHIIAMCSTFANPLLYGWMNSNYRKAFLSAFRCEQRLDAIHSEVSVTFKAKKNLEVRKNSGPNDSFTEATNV

| Molecule | % change in food intake vs vehicle, model A [1] [%] | EC50 [2] [nM] |
| --- | --- | --- |
| CC(C)C[C@H](NC(=O)[C@H](CO)NC(=O)[C@H](C)NC(=O)[C@H](Cc1ccc(O)cc1)NC(=O)[C@H](Cc1ccc(O)cc1)NC(=O)[C@H](CCCNC(=N)N)NC(=O)[C@H](CC(N)=O)NC(=O)[C@H](CC(C)C)NC(=O)[C@H](CCC(=O)O)NC(=O)[C@H](CCC(=O)O)NC(=O)[C@@H]1CCCN1C(=O)[C@H](CO)NC(=O)[C@H](C)NC(=O)[C@H](CC(=O)O)NC(=O)[C@H](CCCCN)NC(=O)CNC(=O)[C@@H]1CCCN1C(=O)[C@H](C)NC(=O)[C@H](CCC(=O)O)NC(=O)[C@@H]1CCCN1C(=O)[C@H](CCCCN)NC(=O)[C@@H]1CCCN1)C(=O)N[C@@H](CCCNC(=N)N)C(=O)N[C@@H](CCCCN)C(=O)N[C@@H](Cc1ccc(O)cc1)C(=O)N[C@@H](CC(C)C)C(=O)N[C@@H](CC(N)=O)C(=O)N[C@@H](Cc1c[nH]c2ccccc12)C(=O)N[C@@H](CC(C)C)C(=O)N[C@H](C(=O)N[C@@H](CCCNC(=N)N)C(=O)N[C@@H](CCC(N)=O)C(=O)N[C@@H](CCCNC(=N)N)C(=O)N[C@@H](Cc1ccc(O)cc1)C(N)=O)[C@@H](C)O [Example 2] | −50 | 0.158 |
| CC(C)C[C@H](NC(=O)[C@H](CC(=O)O)NC(=O)[C@H](C)NC(=O)[C@H](Cc1ccc(O)cc1)NC(=O)[C@H](Cc1ccc(O)cc1)NC(=O)[C@H](CCCNC(=N)N)NC(=O)[C@H](CC(N)=O)NC(=O)[C@H](Cc1c[nH]c2ccccc12)NC(=O)[C@H](CCC(=O)O)NC(=O)[C@H](CCC(=O)O)NC(=O)[C@@H]1CCCN1C(=O)[C@H](CO)NC(=O)[C@H](C)NC(=O)[C@H](CC(=O)O)NC(=O)[C@H](CCCCN)NC(=O)CNC(=O)[C@@H]1CCCN1C(=O)[C@H](C)NC(=O)[C@H](CCC(=O)O)NC(=O)[C@@H]1CCCN1C(=O)[C@H](CCCCN)NC(=O)[C@@H]1CCCN1)C(=O)N[C@@H](CCCNC(=N)N)C(=O)N[C@@H](CCCCN)C(=O)N[C@@H](Cc1ccc(O)cc1)C(=O)N[C@@H](CC(C)C)C(=O)N[C@@H](CC(N)=O)C(=O)N[C@@H](Cc1c[nH]c2ccccc12)C(=O)N[C@@H](CC(C)C)C(=O)N[C@H](C(=O)N[C@@H](CCCNC(=N)N)C(=O)N[C@@H](CCC(N)=O)C(=O)N[C@@H](CCCNC(=N)N)C(=O)N[C@@H](Cc1ccc(O)cc1)C(N)=O)[C@@H](C)O [Example 4] | −83 |  |
| CC(C)C[C@H](NC(=O)[C@H](CO)NC(=O)[C@H](C)NC(=O)[C@H](Cc1ccc(O)cc1)NC(=O)[C@H](Cc1ccc(O)cc1)NC(=O)[C@H](CCCNC(=N)N)NC(=O)[C@H](CC(N)=O)NC(=O)[C@H](Cc1c[nH]c2ccccc12)NC(=O)[C@H](CCC(=O)O)NC(=O)[C@H](CCC(=O)O)NC(=O)[C@@H]1CCCN1C(=O)[C@H](CO)NC(=O)[C@H](C)NC(=O)[C@H](CC(=O)O)NC(=O)[C@H](CCCCN)NC(=O)CNC(=O)[C@@H]1CCCN1C(=O)[C@H](C)NC(=O)[C@H](CCC(=O)O)NC(=O)[C@@H]1CCCN1C(=O)[C@H](CCCCN)NC(=O)[C@@H]1CCCN1)C(=O)N[C@@H](CCCNC(=N)N)C(=O)N[C@@H](CCCCN)C(=O)N[C@@H](Cc1ccc(O)cc1)C(=O)N[C@@H](CC(C)C)C(=O)N[C@@H](CC(N)=O)C(=O)N[C@@H](Cc1c[nH]c2ccccc12)C(=O)N[C@@H](CC(C)C)C(=O)N[C@H](C(=O)N[C@@H](CCCNC(=N)N)C(=O)N[C@@H](CCC(N)=O)C(=O)N[C@@H](CCCNC(=N)N)C(=O)N[C@@H](Cc1ccc(O)cc1)C(N)=O)[C@@H](C)O [Example 6] | −88 | 0.0794 |
| CC(C)C[C@H](NC(=O)[C@H](CC(=O)O)NC(=O)[C@H](C)NC(=O)[C@H](Cc1ccc(O)cc1)NC(=O)[C@H](Cc1ccc(O)cc1)NC(=O)[C@H](CCCNC(=N)N)NC(=O)[C@H](CC(N)=O)NC(=O)[C@H](Cc1c[nH]c2ccccc12)NC(=O)[C@H](CCC(=O)O)NC(=O)[C@H](CCC(=O)O)NC(=O)[C@@H]1CCCN1C(=O)[C@H](CO)NC(=O)[C@H](C)NC(=O)[C@H](CC(=O)O)NC(=O)[C@H](CCCCN)NC(=O)CNC(=O)[C@@H]1CCCN1C(=O)[C@H](C)NC(=O)[C@H](CCC(=O)O)NC(=O)[C@@H]1CCCN1C(=O)[C@H](CCCCN)NC(=O)[C@@H]1CCCN1)C(=O)N[C@@H](CCCNC(=N)N)C(=O)N[C@@H](CCCCN)C(=O)N[C@@H](Cc1ccc(O)cc1)C(=O)N[C@@H](CC(C)C)C(=O)N[C@@H](CC(N)=O)C(=O)N[C@@H](Cc1c[nH]c2ccccc12)C(=O)N[C@H](C(=O)N[C@H](C(=O)N[C@@H](CCCNC(=N)N)C(=O)N[C@@H](CCC(N)=O)C(=O)N[C@@H](CCCNC(=N)N)C(=O)N[C@@H](Cc1ccc(O)cc1)C(N)=O)[C@@H](C)O)C(C)C [Example 8] | −74 | 0.02 |
| CC(C)C[C@H](NC(=O)[C@H](CO)NC(=O)[C@H](C)NC(=O)[C@H](Cc1ccc(O)cc1)NC(=O)[C@H](Cc1ccc(O)cc1)NC(=O)[C@H](CCCNC(=N)N)NC(=O)[C@H](CC(N)=O)NC(=O)[C@H](Cc1c[nH]c2ccccc12)NC(=O)[C@H](CCC(=O)O)NC(=O)[C@H](CCC(=O)O)NC(=O)[C@@H]1CCCN1C(=O)[C@H](CO)NC(=O)[C@H](C)NC(=O)[C@H](CC(=O)O)NC(=O)[C@H](CCCCN)NC(=O)CNC(=O)[C@@H]1CCCN1C(=O)[C@H](C)NC(=O)[C@H](CCC(=O)O)NC(=O)[C@@H]1CCCN1C(=O)[C@H](CCCCN)NC(=O)[C@@H]1CCCN1)C(=O)N[C@@H](CCCNC(=N)N)C(=O)N[C@@H](CCCCN)C(=O)N[C@@H](Cc1ccc(O)cc1)C(=O)N[C@@H](CC(C)C)C(=O)N[C@@H](CC(N)=O)C(=O)N[C@@H](Cc1c[nH]c2ccccc12)C(=O)N[C@H](C(=O)N[C@H](C(=O)N[C@@H](CCCNC(=N)N)C(=O)N[C@@H](CCC(N)=O)C(=O)N[C@@H](CCCNC(=N)N)C(=O)N[C@@H](Cc1ccc(O)cc1)C(N)=O)[C@@H](C)O)C(C)C [Example 10] | −88 | 0.0398 |
| CC(C)C[C@H](NC(=O)[C@H](CO)NC(=O)[C@H](C)NC(=O)[C@H](Cc1ccc(O)cc1)NC(=O)[C@H](Cc1ccc(O)cc1)NC(=O)[C@H](CCCNC(=N)N)NC(=O)[C@H](CC(N)=O)NC(=O)[C@H](CC(C)C)NC(=O)[C@H](CCC(=O)O)NC(=O)[C@H](CCC(=O)O)NC(=O)[C@@H]1CCCN1C(=O)[C@H](CO)NC(=O)[C@H](C)NC(=O)[C@H](CC(=O)O)NC(=O)[C@H](CCCCN)NC(=O)CNC(=O)[C@@H]1CCCN1C(=O)[C@H](C)NC(=O)[C@H](CCC(=O)O)NC(=O)[C@@H]1CCCN1C(=O)[C@H](CCCCN)NC(=O)[C@@H]1CCCN1)C(=O)N[C@@H](CCCNC(=N)N)C(=O)N[C@@H](CCCCN)C(=O)N[C@@H](Cc1ccc(O)cc1)C(=O)N[C@@H](CC(C)C)C(=O)N[C@@H](CC(N)=O)C(=O)N[C@@H](Cc1c[nH]c2ccccc12)C(=O)N[C@H](C(=O)N[C@H](C(=O)N[C@@H](CCCNC(=N)N)C(=O)N[C@@H](CCC(N)=O)C(=O)N[C@@H](CCCNC(=N)N)C(=O)N[C@@H](Cc1ccc(O)cc1)C(N)=O)[C@@H](C)O)C(C)C [Example 31] | −59 | 0.158 |
| H-PQPESPEGNASPEDWACYHAAVRHYVNLITRQRY-NH2 [Peptide 18] | -17 |  |
| PEPEHPGCDASPEDQNKYHASLRKYLNWVTRQRY-NH2 [Peptide 10] | -21 |  |
